According to ChEMBL document CHEMBL5149994, “Anticancer potential of indirubins in medicinal chemistry: Biological activity, structural modification, and structure-activity relationship” (Eur J Med Chem, 2021):
pIC50: −log10 of the molar value. Values after ≈ are worked out from the molar mass of the structure shown. One block for each compound: values may come before it.

Experiments:
[1] = Inhibition of GST-tagged recombinant human CDK2/cyclin E expressed in Sf9 cells incubated for 10 mins in presence of [33P]-gamma ATP and ATP by scintillation counter method
MCF7 [2] = experiment: Cytotoxicity against human MCF7 cells assessed as cell growth inhibition measured after 4 days by crystal violet staining based assay; assay type: functional; conditions: MCF7, 96 h
[3] = Kinetic solubility of compound in PBS at pH 7.4; assay type: physicochemical; conditions: read-out: Kinetic_solubility
CDK2/Cyclin A2 = CDK2/Cyclin A2 (Homo sapiens, UniProt P24941); experiment: Inhibition of CDK2/cyclin A (unknown origin); assay type: protein-complex assay
[4] = Cytotoxicity against rat RK3E cells harboring RAS assessed as cell growth inhibition measured after 24 hrs by MTT assay; assay type: toxicity, cell-based
MCF7 [5] = experiment: Cytotoxicity against human MCF7 cells assessed as cell growth inhibition; assay type: functional, cell-based
SK-MEL19 = experiment: Cytotoxicity against human SK-MEL19 cells assessed as cell growth inhibition measured after 24 hrs by WST-1 assay; assay type: functional, cell-based; conditions: SK-MEL19, 24 h
[6] = Cytotoxicity against human SK-MEL-29 cells assessed as cell growth inhibition measured after 24 hrs by WST-1 assay; assay type: functional, cell-based; conditions: SK-MEL-29, 24 h
SK-MEL-103 = experiment: Cytotoxicity against human SK-MEL-103 cells assessed as cell growth inhibition measured after 24 hrs by WST-1 assay; assay type: functional, cell-based; conditions: SK-MEL-103, 24 h
NCI-H157 = experiment: Cytotoxicity against human NCI-H157 cells assessed as cell growth inhibition at 100 uM by calcein-AM staining based flow cytometry analysis relative to control; assay type: functional; design: scale not given: the % may be the effect or the level left
DU-145 = experiment: Antiproliferative activity against human DU-145 cells assessed as cell growth inhibition by MTT assay; assay type: functional, cell-based
SW480 = experiment: Antiproliferative activity against human SW480 cells assessed as cell growth inhibition; assay type: functional, cell-based
[7] = Antiproliferative activity against human Lu1 cells assessed as cell growth inhibition; assay type: functional, cell-based
HepG2 = experiment: Antiproliferative activity against human HepG2 cells assessed as cell growth inhibition; assay type: functional, cell-based
HL-60 = experiment: Antiproliferative activity against human HL-60 cells assessed as cell growth inhibition; assay type: functional, cell-based
MCF7 [8] = experiment: Cytotoxicity against human MCF7 cells assessed as cell growth inhibition by MTT assay; assay type: functional, cell-based
LoVo = experiment: Cytotoxicity against human LoVo cells assessed as cell growth inhibition by MTT assay; assay type: functional, cell-based
LNCaP = experiment: Cytotoxicity against human LNCaP cells assessed as cell growth inhibition by MTT assay; assay type: functional, cell-based

Structure (SMILES): CN(C)S(=O)(=O)c1ccc2c(c1)/C(=C1/Nc3ccccc3C1=O)C(=O)N2
- pIC50 [1]: 7.40
- pIC50 (MCF7 [2]): < 5.00
- solubility kinetic [3]: < 1 µg/mL

Structure (SMILES): O=C1Nc2ccc([N+](=O)[O-])cc2/C1=C1/Nc2ccccc2/C1=N\O
- IC50 at 24 h [4]: 1 µM

Structure (SMILES): C[C@@H]1O[C@H](N2C(=O)/C(=C3\Nc4ccc(Cl)cc4C3=O)c3ccccc32)[C@H](O)[C@H](O)[C@H]1O
- pIC50 (MCF7 [5]): 5.16

Structure (SMILES): C[C@@H]1O[C@H](N2C(=O)/C(=C3\Nc4ccccc4C3=O)c3ccccc32)[C@H](O)[C@H](O)[C@H]1O
- pIC50 (MCF7 [5]): 6.17
- pIC50 (SK-MEL19): 4.18
- pIC50 [6]: 4.06
- pIC50 (SK-MEL-103): 3.42

Structure (SMILES): C[C@@H]1O[C@H](N2C(=O)/C(=C3\[Se]c4ccccc4C3=O)c3ccccc32)[C@H](O)[C@H](O)[C@H]1O
- Activity (NCI-H157): 16.7%

Structure (SMILES): CN1C(=O)/C(=C2\Nc3ccc(Cl)cc3\C2=N/O)c2cccnc21
- pIC50 (DU-145): 5.74

Structure (SMILES): CN(C)S(=O)(=O)c1ccc2c(c1)/C(=C1/Nc3ccccc3/C1=N\O)C(=O)N2
- pIC50 [1]: 7.40
- pIC50 (MCF7 [2]): 6.40
- solubility kinetic [3]: < 1 µg/mL

Structure (SMILES): CCCN1C(=O)/C(=C2\Nc3ccccc3\C2=N/O)c2ccccc21
- pIC50 (MCF7 [8]): 4.06
- pIC50 (LoVo): 4.17
- pIC50 (LNCaP): 4.11

Structure (SMILES): CN(C)CCN(C)S(=O)(=O)c1ccc2c(c1)/C(=C1/Nc3ccccc3C1(C)O)C(=O)N2 (stereo not given)
- pIC50 [1]: 7.15
- pIC50 (MCF7 [2]): > 7.00
- solubility kinetic [3]: > 40 µg/mL

Structure (SMILES): CN(C)S(=O)(=O)c1ccc2c(c1)/C(=C1/Nc3ccccc3C1(C)O)C(=O)N2 (stereo not given)
- pIC50 [1]: 7.15
- pIC50 (MCF7 [2]): 6.15
- solubility kinetic [3]: > 40 µg/mL

Structure (SMILES): Cc1ccc(Nc2nnc(SCC(O)CN3C(=O)/C(=C4\Nc5ccccc5C4=O)c4ccccc43)s2)c(C)c1 (stereo not given)
- pIC50 (SW480): 5.38
- pIC50 [7]: 5.34
- pIC50 (HepG2): 5.35
- pIC50 (HL-60): 5.37

Structure (SMILES): O=C1Nc2ccc(OC(F)(F)F)cc2/C1=C1/[Se]c2ccccc2C1=O
- Activity (NCI-H157): 17.4%

Structure (SMILES): O=C1/C(=C2/C(=O)N([C@H]3O[C@H](CO)[C@@H](O)[C@H](O)[C@@H]3O)c3ccccc32)[Se]c2ccccc21
- Activity (NCI-H157): 21.5%

Structure (SMILES): C[C@@H]1O[C@@H](N2C(=O)/C(=C3\Nc4ccccc4C3=O)c3ccccc32)[C@H](O)[C@H](O)[C@H]1O
- pIC50 (MCF7 [5]): 6.12

Now from value to compound, other results behind:

- pIC50 (CDK2/Cyclin A2): 5.06
Structure (SMILES): O=C1Nc2ccccc2/C1=C1/Nc2ncccc2C1=O

- pIC50 (SW480): 4.80
- pIC50 (HepG2): 4.81
- pIC50 (HL-60): 4.92
Structure (SMILES): Cc1cccc(Nc2nnc(SCC(O)CO/N=C3/C(=C4/C(=O)Nc5ccccc54)Nc4ccccc43)s2)c1C (stereo not given)
- pIC50 [7]: 4.72

- solubility kinetic [3]: 18 µg/mL (≈ 40.8 µM)
Structure (SMILES): CN(C)CCN(C)S(=O)(=O)c1ccc2c(c1)/C(=C1/Nc3ccccc3/C1=N\O)C(=O)N2
- pIC50 [1]: 7.40
- pIC50 (MCF7 [2]): > 7.00

- pIC50 (SW480): 5.78
- pIC50 (HepG2): 5.72
- pIC50 (HL-60): 5.87
Structure (SMILES): O=C1/C(=C2/C(=O)N(CC(O)CSc3nnc(Nc4ccccc4)s3)c3ccccc32)Nc2ccccc21 (stereo not given)
- pIC50 [7]: 5.66

- solubility kinetic [3]: 12 µg/mL (≈ 28.1 µM)
Structure (SMILES): CN(C)CCN(C)S(=O)(=O)c1ccc2c(c1)/C(=C1/Nc3ccccc3C1=O)C(=O)N2
- pIC50 [1]: 8.00
- pIC50 (MCF7 [2]): > 7.00

- pIC50 (SW480): 4.79
- pIC50 (HepG2): 4.75
- pIC50 (HL-60): 5.02
Structure (SMILES): O=C1Nc2ccccc2/C1=C1/Nc2ccccc2/C1=N\OCC(O)CSc1nnc(Nc2ccccc2)s1 (stereo not given)
- pIC50 [7]: 4.77

- pIC50 (DU-145): 5.10
Structure (SMILES): CN1C(=O)/C(=C2\Nc3ccc(Cl)cc3C2=O)c2cccnc21

- pIC50 (CDK2/Cyclin A2): 5.02
Structure (SMILES): CC(C)N1C(=O)/C(=C2\Nc3ccccc3C2=O)c2cccnc21

- pIC50 (CDK2/Cyclin A2): 5.92
- pIC50 (DU-145): 4.40
Structure (SMILES): CCN1C(=O)/C(=C2\Nc3ccccc3C2=O)c2cccnc21

- solubility kinetic [3]: 31 µg/mL (≈ 75.3 µM)
Structure (SMILES): C=CCC1(O)/C(=C2/C(=O)Nc3ccc(S(=O)(=O)N(C)C)cc32)Nc2ccccc21 (stereo not given)
- pIC50 [1]: 7.05
- pIC50 (MCF7 [2]): 6.70

- pIC50 (DU-145): 5.10
Structure (SMILES): CCN1C(=O)/C(=C2\Nc3ccccc3\C2=N/O)c2cccnc21

- solubility kinetic [3]: > 40 µg/mL
Structure (SMILES): C=CCC1(O)/C(=C2/C(=O)Nc3ccc(S(=O)(=O)N(C)CCN(C)C)cc32)Nc2ccccc21 (stereo not given)
- pIC50 [1]: 7.40
- pIC50 (MCF7 [2]): > 7.00
